The subject of assay [1] is oyster hemocytes. It is filed as cell-based.
The subject of assay [2] is 3-day old cyprid. The following applies: in vivo.

“Also recorded” adds a separate entry of the source.

On to “pGlu Gly Val Cys Cys Gly Tyr Lys Leu Cys His Hyp Cys-NH2 [SEQ ID NO: 13]”, for which the “apoptosis in oyster hemocytes” value in assay [1] is on record as “cause apoptosis”. Further, the cyprid settlement entry in assay [2] is recorded as “inhibited cyprid settlement; also recorded: promoted settlement”.

The values are drawn from patent publication US10865316B2 (Clemson University Research Foundation, priority 2015, dated 2020).
